# In PubChem BioAssay (NCI):
#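 Tested at 5 concentrations; 48 h exposure; 96-well plates; endpoints linearly interpolated, else capped at highest concentration. GI50: concentration for 50% inhibition of growth. At the TGI there is no net growth.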
# Columns and labels:
# Assay in all cases: growth of human tumour cells (NCI), 48 h
# SN12C renal = test system: SN12C renal
# UO-31 renal = test system: UO-31 renal
# A498 renal = test system: A498 renal
# K-562 leukemia = test system: K-562 leukemia
# U251 CNS = test system: U251 CNS
# MOLT-4 leukemia = test system: MOLT-4 leukemia
# HS 578T breast = test system: HS 578T breast
# MALME-3M melanoma = test system: MALME-3M melanoma
# RPMI-8226 leukemia = test system: RPMI-8226 leukemia
# T-47D breast = test system: T-47D breast
# DU-145 prostate = test system: DU-145 prostate
# NCI-H23 lung = test system: NCI-H23 lung
# 786-0 renal = test system: 786-0 renal
# SK-MEL-28 melanoma = test system: SK-MEL-28 melanoma
# SNB-75 CNS = test system: SNB-75 CNS
# A549 NSCLC = test system: A549 NSCLC
# UACC-257 melanoma = test system: UACC-257 melanoma
# CCRF-CEM leukemia = test system: CCRF-CEM leukemia
# SF-539 CNS = test system: SF-539 CNS
# SK-OV-3 ovarian = test system: SK-OV-3 ovarian
# MDA-MB-231 breast = test system: MDA-MB-231 breast
# HCT-15 colon = test system: HCT-15 colon
# LOX IMVI melanoma = test system: LOX IMVI melanoma
# TK-10 renal = test system: TK-10 renal
# IGROV1 ovarian = test system: IGROV1 ovarian
# COLO 205 colon = test system: COLO 205 colon
# OVCAR-8 ovarian = test system: OVCAR-8 ovarian
# KM12 colon = test system: KM12 colon
# NCI-H226 lung = test system: NCI-H226 lung
# ACHN renal = test system: ACHN renal
# CAKI-1 renal = test system: CAKI-1 renal
# SF-295 CNS = test system: SF-295 CNS
# RXF 393 renal = test system: RXF 393 renal
# HL-60(TB) leukemia = test system: HL-60(TB) leukemia
# HOP-62 NSCLC = test system: HOP-62 NSCLC
# NCI-H460 lung = test system: NCI-H460 lung
# SK-MEL-2 melanoma = test system: SK-MEL-2 melanoma
# SW-620 colon = test system: SW-620 colon
# MDA-MB-435 = test system: MDA-MB-435
# MCF7 breast = test system: MCF7 breast
# HCT-116 colon = test system: HCT-116 colon
# OVCAR-3 ovarian = test system: OVCAR-3 ovarian
# OVCAR-4 ovarian = test system: OVCAR-4 ovarian
# BT-549 breast = test system: BT-549 breast
# OVCAR-5 ovarian = test system: OVCAR-5 ovarian
# HCC-2998 colon = test system: HCC-2998 colon
# HOP-92 NSCLC = test system: HOP-92 NSCLC
# M14 melanoma = test system: M14 melanoma
# PC-3 prostate = test system: PC-3 prostate
# HT29 colon = test system: HT29 colon
# NCI/ADR-RES ovarian = test system: NCI/ADR-RES ovarian
# EKVX NSCLC = test system: EKVX NSCLC
# SNB-19 CNS = test system: SNB-19 CNS
# UACC-62 melanoma = test system: UACC-62 melanoma
# SK-MEL-5 melanoma = test system: SK-MEL-5 melanoma
# SR leukemia = test system: SR leukemia
# SF-268 CNS = test system: SF-268 CNS
# NCI-H522 lung = test system: NCI-H522 lung
smiles,measurement,setting,value
O=C(CCCCN1CCN(CCCCC(=O)Nc2ccccc2C#C/C=C\C#Cc2ccccc2C(F)(F)F)CC1)Nc1ccccc1C#C/C=C\C#Cc1ccccc1C(F)(F)F,GI50,SN12C renal,17.6 µM
same,TGI,SN12C renal,> 50 µM
same,GI50,UO-31 renal,11.8 µM
same,TGI,UO-31 renal,48 µM
same,GI50,A498 renal,11.7 µM
same,TGI,A498 renal,22.9 µM
same,GI50,K-562 leukemia,8.04 µM
same,TGI,K-562 leukemia,34.8 µM
same,GI50,U251 CNS,9.01 µM
same,TGI,U251 CNS,18.9 µM
same,GI50,MOLT-4 leukemia,8.55 µM
same,TGI,MOLT-4 leukemia,27 µM
same,GI50,HS 578T breast,11.2 µM
same,TGI,HS 578T breast,25.3 µM
same,GI50,MALME-3M melanoma,12.2 µM
same,TGI,MALME-3M melanoma,29.5 µM
same,GI50,RPMI-8226 leukemia,7.46 µM
same,TGI,RPMI-8226 leukemia,19.1 µM
same,GI50,T-47D breast,13.2 µM
same,TGI,T-47D breast,29.2 µM
same,GI50,DU-145 prostate,17.4 µM
same,TGI,DU-145 prostate,> 50 µM
same,GI50,NCI-H23 lung,13.8 µM
same,TGI,NCI-H23 lung,38.9 µM
same,GI50,786-0 renal,9.8 µM
same,TGI,786-0 renal,18.3 µM
same,GI50,SK-MEL-28 melanoma,9.76 µM
same,TGI,SK-MEL-28 melanoma,18.4 µM
same,GI50,SNB-75 CNS,10.3 µM
same,TGI,SNB-75 CNS,26.9 µM
same,GI50,A549 NSCLC,12.4 µM
same,TGI,A549 NSCLC,37.6 µM
same,GI50,UACC-257 melanoma,10.8 µM
same,TGI,UACC-257 melanoma,22.5 µM
same,GI50,CCRF-CEM leukemia,6.02 µM
same,TGI,CCRF-CEM leukemia,17 µM
same,GI50,SF-539 CNS,10.2 µM
same,TGI,SF-539 CNS,19.3 µM
same,GI50,SK-OV-3 ovarian,18.7 µM
same,TGI,SK-OV-3 ovarian,> 50 µM
same,GI50,MDA-MB-231 breast,6.23 µM
same,TGI,MDA-MB-231 breast,16 µM
same,GI50,HCT-15 colon,10.5 µM
same,TGI,HCT-15 colon,23.8 µM
same,GI50,LOX IMVI melanoma,10.1 µM
same,TGI,LOX IMVI melanoma,20.2 µM
same,GI50,TK-10 renal,16.6 µM
same,TGI,TK-10 renal,36 µM
same,GI50,IGROV1 ovarian,9.37 µM
same,TGI,IGROV1 ovarian,26.2 µM
same,GI50,COLO 205 colon,38.3 µM
same,TGI,COLO 205 colon,> 50 µM
same,GI50,OVCAR-8 ovarian,12.2 µM
same,TGI,OVCAR-8 ovarian,28.5 µM
same,GI50,KM12 colon,13.2 µM
same,TGI,KM12 colon,33 µM
same,GI50,NCI-H226 lung,40.7 µM
same,TGI,NCI-H226 lung,> 50 µM
same,GI50,ACHN renal,20.9 µM
same,TGI,ACHN renal,> 50 µM
same,GI50,CAKI-1 renal,> 50 µM
same,TGI,CAKI-1 renal,> 50 µM
same,GI50,SF-295 CNS,19 µM
same,TGI,SF-295 CNS,> 50 µM
same,GI50,RXF 393 renal,9.81 µM
same,TGI,RXF 393 renal,23.5 µM
same,GI50,HL-60(TB) leukemia,11.9 µM
same,TGI,HL-60(TB) leukemia,24.6 µM
same,GI50,HOP-62 NSCLC,12.2 µM
same,TGI,HOP-62 NSCLC,32 µM
same,GI50,NCI-H460 lung,11.2 µM
same,TGI,NCI-H460 lung,25.5 µM
same,GI50,SK-MEL-2 melanoma,12.4 µM
same,TGI,SK-MEL-2 melanoma,29.9 µM
same,GI50,SW-620 colon,9.39 µM
same,TGI,SW-620 colon,18.4 µM
same,GI50,MDA-MB-435,11.7 µM
same,TGI,MDA-MB-435,22 µM
same,GI50,MCF7 breast,9.97 µM
same,TGI,MCF7 breast,23 µM
same,GI50,HCT-116 colon,9.18 µM
same,TGI,HCT-116 colon,17.8 µM
same,GI50,OVCAR-3 ovarian,10.6 µM
same,TGI,OVCAR-3 ovarian,21.8 µM
same,GI50,OVCAR-4 ovarian,16.2 µM
same,TGI,OVCAR-4 ovarian,49.5 µM
same,GI50,BT-549 breast,8.94 µM
same,TGI,BT-549 breast,17.4 µM
same,GI50,OVCAR-5 ovarian,14.4 µM
same,TGI,OVCAR-5 ovarian,> 50 µM
same,GI50,HCC-2998 colon,9.14 µM
same,TGI,HCC-2998 colon,17.5 µM
same,GI50,HOP-92 NSCLC,4.14 µM
same,TGI,HOP-92 NSCLC,11.5 µM
same,GI50,M14 melanoma,11.7 µM
same,TGI,M14 melanoma,25.9 µM
same,GI50,PC-3 prostate,13.9 µM
same,TGI,PC-3 prostate,> 50 µM
same,GI50,HT29 colon,7.11 µM
same,TGI,HT29 colon,26.2 µM
same,GI50,NCI/ADR-RES ovarian,9.64 µM
same,TGI,NCI/ADR-RES ovarian,20 µM
same,GI50,EKVX NSCLC,18 µM
same,TGI,EKVX NSCLC,> 50 µM
same,GI50,SNB-19 CNS,11.7 µM
same,TGI,SNB-19 CNS,32.1 µM
same,GI50,UACC-62 melanoma,11 µM
same,TGI,UACC-62 melanoma,22.8 µM
same,GI50,SK-MEL-5 melanoma,9.26 µM
same,TGI,SK-MEL-5 melanoma,16.9 µM
same,GI50,SR leukemia,3.23 µM
same,TGI,SR leukemia,16.6 µM
same,GI50,SF-268 CNS,12.3 µM
same,TGI,SF-268 CNS,32.9 µM
same,GI50,NCI-H522 lung,9.19 µM
same,TGI,NCI-H522 lung,20.4 µM
